Test results published in patent US20150352108A1, “AMINO-PYRIMIDINE COMPOUNDS AS INHIBITORS OF TBK1 AND/OR IKK EPSILON” (Alzheimer's Institute of America, priority 2009, published 2015).

Experiments:
TBK1 = biological target: T1, TBK1 (Homo sapiens, UniProt Q9UHD2); test: In-vitro TBK1 kinase assay ([γ33]ATP filter-plate); type: biochemical; details: text bins; read-out: IC50 for inhibition of the kinase activity of TBK1
T1 construct: His-tag; made in house; host or cells: Sf9 insect cells
T1 sequence (Q9UHD2 1-729): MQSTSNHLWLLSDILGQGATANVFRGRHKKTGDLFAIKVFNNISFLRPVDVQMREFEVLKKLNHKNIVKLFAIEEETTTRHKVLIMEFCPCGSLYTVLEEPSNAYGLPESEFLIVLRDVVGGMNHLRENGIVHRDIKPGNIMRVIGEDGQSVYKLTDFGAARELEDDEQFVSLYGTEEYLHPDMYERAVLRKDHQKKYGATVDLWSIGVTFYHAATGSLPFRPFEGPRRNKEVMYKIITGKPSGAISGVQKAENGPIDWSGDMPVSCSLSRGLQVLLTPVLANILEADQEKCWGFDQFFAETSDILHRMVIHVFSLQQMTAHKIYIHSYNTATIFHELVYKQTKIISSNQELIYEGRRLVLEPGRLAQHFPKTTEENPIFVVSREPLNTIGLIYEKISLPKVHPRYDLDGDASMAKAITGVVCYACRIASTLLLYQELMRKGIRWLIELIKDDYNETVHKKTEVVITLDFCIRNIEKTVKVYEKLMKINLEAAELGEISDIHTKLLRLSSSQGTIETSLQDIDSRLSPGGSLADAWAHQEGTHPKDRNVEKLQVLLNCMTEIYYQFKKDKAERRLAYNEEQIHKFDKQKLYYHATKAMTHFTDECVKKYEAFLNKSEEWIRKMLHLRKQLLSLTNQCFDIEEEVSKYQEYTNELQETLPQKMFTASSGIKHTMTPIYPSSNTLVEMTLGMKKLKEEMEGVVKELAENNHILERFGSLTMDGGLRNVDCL
Experimental: IKKε enzyme was produced as a His-tag fusion in Sf9 cells and used at a final concentration of […]. TBK1 enzyme was produced as a His-tag fusion in Sf9 cells and used at a final concentration of 0.1 μg/ml. Kinase reactions were carried out in reaction buffer using myelin basic protein (Millipore, Ballerica, Mass.) or casein (Sigma, St. Louis, Mo.) as substrate at an ATP concentration equal to twice the Km,ATP value for each enzyme, corresponding to 32 μM ATP for IKKε and 60 μM ATP for TBK1, in the presence of 0.3 μCi [γ^33]ATP (PerkinElmer, Waltham, Mass.). Final enzyme concentrations were 0.1 or 0.015 μg/ml (IKKε) and 0.1 or 0.02 μg/ml (TBK1), representing “normal” and “sensitized” assay conditions respectively. Test compounds (or DMSO solvent as a control) were added prior to initiation of the reactions. Reactions were terminated after 30-45 minutes by adding 3% phosphoric acid. Terminated reactions were transferred to P-81 cellulose phosphate filterplates (Whatman, Inc., Piscataway, N.J.) and washed with 1% phosphoric acid on a vacuum apparatus. After air drying, scintillant (PerkinElmer, Waltham, Mass.) was added and the plates were read on a PerkinElmer TopCount NXT instrument. Counts were normalized to DMSO controls after background subtraction.

IKKε = biological target: T2, IKKε (Homo sapiens, UniProt Q14164); test: In-vitro IKKε kinase assay ([γ33]ATP filter-plate); type: biochemical; details: text bins; read-out: IC50 for inhibition of the kinase activity of IKKε
T2 construct: His-tag; made in house; host or cells: Sf9 insect cells
T2 sequence (Q14164 1-716): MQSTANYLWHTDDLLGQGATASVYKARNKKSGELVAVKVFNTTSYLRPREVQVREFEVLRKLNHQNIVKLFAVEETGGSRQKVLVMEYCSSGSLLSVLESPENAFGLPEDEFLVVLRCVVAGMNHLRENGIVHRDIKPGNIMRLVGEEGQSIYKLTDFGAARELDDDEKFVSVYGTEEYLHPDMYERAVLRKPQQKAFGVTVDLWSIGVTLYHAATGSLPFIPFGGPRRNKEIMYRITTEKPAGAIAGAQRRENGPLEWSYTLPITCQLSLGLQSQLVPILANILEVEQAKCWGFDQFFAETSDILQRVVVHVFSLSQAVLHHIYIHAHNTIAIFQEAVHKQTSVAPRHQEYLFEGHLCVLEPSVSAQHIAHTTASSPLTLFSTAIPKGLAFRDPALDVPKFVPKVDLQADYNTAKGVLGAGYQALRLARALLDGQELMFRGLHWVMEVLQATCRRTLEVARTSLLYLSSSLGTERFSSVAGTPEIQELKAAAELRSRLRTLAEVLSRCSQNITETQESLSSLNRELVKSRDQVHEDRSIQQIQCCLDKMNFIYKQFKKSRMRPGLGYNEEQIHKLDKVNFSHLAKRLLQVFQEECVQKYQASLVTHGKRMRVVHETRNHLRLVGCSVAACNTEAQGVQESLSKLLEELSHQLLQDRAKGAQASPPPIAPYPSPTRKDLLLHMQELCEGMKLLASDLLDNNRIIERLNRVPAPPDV
How it was run: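 His-tagged Sf9-expressed kinases at 0.1 or 0.02 μg/ml (TBK1) and 0.1 or 0.015 μg/ml (IKKε) for normal and sensitized formats, with myelin basic protein or casein substrate. ATP was at 2×Km (60 μM TBK1, 32 μM IKKε) plus 0.3 μCi [γ33]ATP. Reactions ran 30-45 min, were captured on P-81 filters, and counts were normalized to DMSO.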

Compound	IC50 (TBK1) [nM]	IC50 (IKKε) [nM]
CC(C)C(=O)Nc1ccc(-c2ccnc(Nc3cccc(CC(=O)NCCCN4CCOCC4)c3)n2)cc1C#N [compound 422, N-[2-cyano-4-(2-{[3-(2-{[3-(morpholin-4-yl)propyl]amino}-2-oxoethyl)phenyl]amino}pyrimidin-4-yl)phenyl]-2-methylpropanamide]	10 to 100	5 to 50
CC(C)COc1ccc(-c2ccnc(Nc3ccc(CS(=O)(=O)NCCO)cc3)n2)cc1C#N [compound 645, 1-[4-({4-[3-Cyano-4-(2-methylpropoxy)phenyl]pyrimidin-2-yl}amino)phenyl]-N-(2-hydroxyethyl) methanesulfonamide]	< 10	< 5
N#Cc1cc(-c2ccnc(Nc3ccc(N4CCOCC4)cc3)n2)ccc1OC1CCN(C(=O)CN)CC1 [Example 268, 2-[(1-Glycylpiperidin-4-yl)oxy]-5-(2-{[4-(morpholin-4-yl)phenyl]amino}pyrimidin-4-yl)benzonitrile]	< 10	5 to 50
C[C@H](O)C(=O)N1CCC(Oc2ccc(-c3ccnc(Nc4ccc(N5CCOCC5)cc4)n3)cc2C#N)CC1 [Example 6, 2-({1-[(2S)-2-Hydroxypropanoyl]piperidin-4-yl}oxy)-5-(2-{[4-(morpholin-4-yl)phenyl]amino}pyrimidin-4-yl)benzonitrile]	< 10	< 5
COc1cc(Nc2nccc(-c3ccc(OC4CCN(C(=O)[C@H](C)O)C4)c(C#N)c3)n2)ccc1N1CCOCC1 (stereo partly drawn) [Example 116, 2-({1-[(2S)-2-hydroxypropanoyl]pyrrolidin-3-yl}oxy)-5-(2-{[3-methoxy-4-(morpholin-4-yl)phenyl]amino}pyrimidin-4-yl)benzonitrile]	< 10	5 to 50
CC(C)Oc1ccc(-c2ccnc(Nc3ccc(N4CCN(C)CC4)cc3)n2)cc1C#N [compound 335, 5-(2-{[4-(4-Methylpiperazin-1-yl)phenyl]amino}pyrimidin-4-yl)-2-(propan-2-yloxy)benzonitrile]	< 10	< 5
Cc1nnsc1C(=O)Nc1ccc(-c2ccnc(Nc3ccc(N4CCOCC4)cc3)n2)cc1C#N [Example 129, N-[2-cyano-4-(2-{[4-(morpholin-4-yl)phenyl]amino}pyrimidin-4-yl)phenyl]-4-methyl-1,2,3-thiadiazol-5-carboxamide]	< 10	< 5
COc1cc(Nc2nccc(-c3ccc(OC4CCOCC4)c(C#N)c3)n2)ccc1C(N)=O [compound 311, 4-({4-[3-cyano-4-(tetrahydro-2H-pyran-4-yloxy)phenyl]pyrimidin-2-yl}amino)-2-methoxybenzamide]	< 10	< 5
CNCCCNS(=O)(=O)c1ccc(Nc2nccc(-c3ccc(OC4CCOCC4)c(C#N)c3)n2)cc1OC [compound 396]	< 10	< 5
N#Cc1cc(-c2ccnc(Nc3ccc4c(c3)OCO4)n2)ccc1OC1CCOCC1 [Example 23, 5-[2-(1,3-benzodioxol-5-ylamino)pyrimidin-4-yl]-2-(tetrahydro-2H-pyran-4-yloxy)benzonitrile]	< 10	5 to 50
CNS(=O)(=O)Cc1ccc(Nc2nccc(-c3ccc(OCC4CC4)c(C#N)c3)n2)cc1 [compound 644, 1-[4-({4-[3-Cyano-4-(cyclopropylmethoxy)phenyl]pyrimidin-2-yl}amino)phenyl]-N-methylmethane-sulfonamide]	< 10	< 5
N#Cc1cc(-c2ccnc(Nc3ccc(NC(=O)Nc4ccncc4)cc3)n2)ccc1OC1CCOCC1 [Example 17, 1-[4-({4-[3-cyano-4-(tetrahydro-2H-pyran-4-yloxy)phenyl]pyrimidin-2-yl}amino)phenyl]-3-pyridin-4-ylurea]	10 to 100	5 to 50

Results, then the compound that gave them:

IC50 (TBK1) [nM]	IC50 (IKKε) [nM]	Compound
10 to 100	5 to 50	COc1ccc(-c2ccnc(Nc3ccc(S(=O)(=O)NCCCN)c(OC)c3)n2)cc1C#N [compound 383, N-(3-Aminopropyl)-4-{[4-(3-cyano-4-methoxyphenyl)pyrimidin-2-yl]amino}-2-methoxybenzene-sulfonamide]
< 10	5 to 50	N#Cc1cc(-c2ccnc(Nc3ccc(N4CCOCC4)cc3)n2)ccc1O[C@@H]1CCNC1 [compound 470, 5-(2-{[4-(morpholin-4-yl)phenyl]amino}pyrimidin-4-yl)-2-[(3R)-pyrrolidin-3-yloxy]benzonitrile]
< 10	< 5	COc1cc(Nc2nccc(-c3ccc(OC4CCOCC4)c(C#N)c3)n2)ccc1S(=O)(=O)N(C)CCCN(C)C [compound 397]
< 10	5 to 50	COc1cc(NC(=O)NCCCO)cc(Nc2nccc(-c3ccc(OC)c(C#N)c3)n2)c1 [compound 315, 1-(3-{[4-(3-Cyano-4-methoxyphenyl)pyrimidin-2-yl]amino}-5-methoxyphenyl)-3-(3-hydroxypropyl)urea]
10 to 100	5 to 50	N#Cc1cc(-c2ccnc(Nc3ccc(N4CCOCC4)cc3)n2)ccc1NC(=O)C1CCC1 [compound 416, N-[2-cyano-4-(2-{[4-(morpholin-4-yl)phenyl]amino}pyrimidin-4-yl)phenyl] cyclobutane-carboxamide]
< 10	< 5	N#Cc1cc(-c2ccnc(Nc3ccc4ncsc4c3)n2)ccc1OC1CCOCC1 [Example 16, 5-[2-(1,3-benzothiazol-6-ylamino)pyrimidin-4-yl]-2-(tetrahydro-2H-pyran-4-yloxy)benzonitrile]
< 10	< 5	COc1cc(Nc2nccc(-c3ccc(OC(C)C)c(C#N)c3)n2)cc(OC)c1OC [Example 33, 2-(Propan-2-yloxy)-5-{2-[(3,4,5-trimethoxyphenyl)amino]pyrimidin-4-yl}benzonitrile]
< 10	5 to 50	Cc1ccc(-c2ccnc(Nc3ccc(N4CCOCC4)cc3)n2)cc1C#N [Example 269, 2-Methyl-5-(2-{[4-(morpholin-4-yl)phenyl]amino}pyrimidin-4-yl)benzonitrile]
10 to 100	5 to 50	COCCNCc1ccc(Nc2nccc(-c3ccc(NC(=O)C4CC4)c(C#N)c3)n2)cc1 [compound 557]
< 10	< 5	COc1ccc(-c2ccnc(Nc3ccc(N4CCCNC(=O)C4)c(OC)c3)n2)cc1C#N [Example 104, 2-Methoxy-5-(2-{[3-methoxy-4-(3-oxo-1,4-diazepan-1-yl)phenyl]amino}pyrimidin-4-yl)benzonitrile]
< 10	5 to 50	N#Cc1cc(-c2ccnc(Nc3ccc(N4CCOCC4)cc3)n2)ccc1OC1CCNCC1 [Example 194, 5-(2-{[4-(Morpholin-4-yl)phenyl]amino}pyrimidin-4-yl)-2-(piperidin-4-yloxy)benzonitrile]
